Measurements: the supplement of paper PMC11061612

Tests used:
[1] = test system: HT-29 (Colorectal Carcinoma); test: combination Emax (second highest fraction inhibited in the dose matrix, 72 h); higher = more inhibition; extreme values may be limits of the assay
Summary of the method: (§1)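 Cell lines grown in DMEM/F12 or RPMI with 10% FBS were plated in 1536-well plates and held 24 hours at 37°C, 5% CO2 before 72 hours of exposure to two-drug dose matrices, with DMSO typically at 0.2%. CellTiter-Glo 2.0 luminescence gave viability, which was converted to inhibition. Vehicle wells were set to 0 and blank wells to 1. Combination Emax is the second-highest inhibition in the matrix, and Bliss excess is the observed combination effect minus the expected EA + EB − EA·EB, where EA and EB are the single-agent effects.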

[2] = test system: KATOIII (Gastric Carcinoma); test: as above
Summary of the method: as §1

ES7 (Ewing's Sarcoma) = test: as above
Summary of the method: as §1

[3] = test system: NALM-6 (B-Lymphoblastic Leukemia); test: as above
Summary of the method: as §1

[4] = test system: SW1088 (Low Grade Glioma); test: as above
Summary of the method: as §1

[5] = test system: NCI-H211 (Small Cell Lung Carcinoma); test: as above
Summary of the method: as §1

[6] = test system: SW1990 (Pancreatic Carcinoma); test: as above
Summary of the method: as §1

[7] = test system: LS-513 (Colorectal Carcinoma); test: Bliss excess, mean over the matrix (fraction); higher = more synergy
Summary of the method: as §1

SK-N-FI (Neuroblastoma) = test: as above
Summary of the method: as §1

[8] = test system: KATOIII (Gastric Carcinoma); test: as above
Summary of the method: as §1

[9] = test system: OCI-AML2 (Acute Myeloid Leukemia); test: as above
Summary of the method: as §1

[10] = test system: NALM-6 (B-Lymphoblastic Leukemia); test: as above
Summary of the method: as §1

[11] = test system: NCI-H1299 (Non-Small Cell Lung Carcinoma); test: as above
Summary of the method: as §1

[12] = test system: NCI-H211 (Small Cell Lung Carcinoma); test: as above
Summary of the method: as §1

[13] = test system: SW1783 (Low Grade Glioma); test: as above
Summary of the method: as §1

[14] = test system: COR-L95 (Small Cell Lung Carcinoma); test: as above
Summary of the method: as §1

SN12C (Kidney Carcinoma) = test: as above
Summary of the method: as §1

[15] = test system: MDA-MB-157 (Breast Carcinoma); test: as above
Summary of the method: as §1

[16] = test system: SW1990 (Pancreatic Carcinoma); test: as above
Summary of the method: as §1

[17] = test system: U-266 (Plasma Cell Myeloma); test: as above
Summary of the method: as §1
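Throughout, for Bliss excess, mean over the matrix: after 72 h of two-drug dosing.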

| SMILES | combination Emax [1] | combination Emax [2] | combination Emax (ES7 (Ewing's Sarcoma)) | combination Emax [3] | combination Emax [4] | combination Emax [5] | combination Emax [6] | Bliss excess [7] | Bliss excess (SK-N-FI (Neuroblastoma)) | Bliss excess [8] | Bliss excess [9] | Bliss excess [10] | Bliss excess [11] | Bliss excess [12] | Bliss excess [13] | Bliss excess [14] | Bliss excess (SN12C (Kidney Carcinoma)) | Bliss excess [15] | Bliss excess [16] | Bliss excess [17] |
| --- | --- | --- | --- | --- | --- | --- | --- | --- | --- | --- | --- | --- | --- | --- | --- | --- | --- | --- | --- | --- |
| C=CCn1c(=O)c2cnc(Nc3ccc(N4CCN(C)CC4)cc3)nc2n1-c1cccc(C(C)(C)O)n1 [AZD1775] + CCc1c2c(nc3ccc(O)cc13)-c1cc3c(c(=O)n1C2)COC(=O)[C@]3(O)CC [SN-38] (first compound max 1 µM, partner max 0.3 µM) | 0.929 | 0.431 | 0.997 | 1 | 0.712 | 0.989 | 0.542 | -0.0867 | -0.0038 | -0.0948 | -0.0278 | -0.0563 | -0.0071 | -0.0576 | -0.0817 | -0.103 | 0.0364 | 0.0495 | -0.0908 | -0.0555 |
| C=CCn1c(=O)c2cnc(Nc3ccc(N4CCN(C)CC4)cc3)nc2n1-c1cccc(C(C)(C)O)n1 [AZD1775] + Nc1ccn([C@@H]2O[C@H](CO)[C@@H](O)C2(F)F)c(=O)n1 [Gemcitabine] (first compound max 1 µM, partner max 0.3 µM) | 0.884 | 0.506 | 0.983 | 0.958 | 0.581 | 0.998 | 0.384 | -0.04 | -0.0167 | -0.0196 | 0.0415 | -0.0093 | 0.0513 | 0.0129 | 0.0121 | -0.0611 | 0.0719 | 0.106 | -0.0395 | -0.0121 |
| CN(CCO)CC[C@H](CSc1ccccc1)Nc1ccc(S(=O)(=O)NC(=O)c2ccc(N3CCC([C@@H](O)c4ccccc4-c4ccc(Cl)cc4)CC3)cc2)cc1S(=O)(=O)C(F)(F)F [AZD4320] + CC(=O)O[C@H]1C(=O)[C@@]2(C)[C@H]([C@H](OC(=O)c3ccccc3)[C@]3(O)C[C@H](OC(=O)[C@H](O)[C@@H](NC(=O)c4ccccc4)c4ccccc4)C(C)=C1C3(C)C)[C@]1(OC(C)=O)CO[C@@H]1C[C@@H]2O [Paclitaxel] (first compound max 1 µM, 7x7, partner max 3 µM) | 0.885 | 0.803 | 1 | 1 | 0.837 | 1 | 0.957 | -0.0136 | -0.025 | 0.168 | -0.0016 | 0.013 | 0.007 | 0.0259 | 0.0754 | 0.141 | 0.153 | 0.0168 | 0.329 | 0.0026 |
| CN(CCO)CC[C@H](CSc1ccccc1)Nc1ccc(S(=O)(=O)NC(=O)c2ccc(N3CCC([C@@H](O)c4ccccc4-c4ccc(Cl)cc4)CC3)cc2)cc1S(=O)(=O)C(F)(F)F [AZD4320] + CS(=O)(=O)CCNCc1ccc(-c2ccc3ncnc(Nc4ccc(OCc5cccc(F)c5)c(Cl)c4)c3c2)o1 [Lapatinib] (first compound max 1 µM, 7x7, partner max 10 µM) | 0.928 | 0.586 | 0.984 | 1 | 0.388 | 1 | 0.302 | 0.0667 | 0.057 | -0.0407 | 0.0843 | -0.0112 | -0.0664 | 0.0409 | 0.0765 | 0.0386 | -0.0385 | 0.019 | -0.0093 | -0.052 |
| CN(CCO)CC[C@H](CSc1ccccc1)Nc1ccc(S(=O)(=O)NC(=O)c2ccc(N3CCC([C@@H](O)c4ccccc4-c4ccc(Cl)cc4)CC3)cc2)cc1S(=O)(=O)C(F)(F)F [AZD4320] + Nc1ccn([C@@H]2O[C@H](CO)[C@@H](O)C2(F)F)c(=O)n1 [Gemcitabine] (first compound max 1 µM, 7x7, partner max 0.3 µM) | 0.733 | 0.473 | 0.997 | 1 | 0.151 | 1 | 0.627 | -0.0318 | 0.0077 | 0.0213 | 0.0007 | -0.0024 | -0.0261 | 0.0135 | 0.0546 | 0.0634 | 0.0195 | -0.0349 | 0.0103 | 0.0421 |
| Cc1c2c(nn1C)CSCc1cc(n(C)n1)CSc1cc(c3ccccc3c1)OCCCc1c(C(=O)O)n(C)c3c-2c(Cl)ccc13 [AZD5991] + CC(=O)O[C@H]1C(=O)[C@@]2(C)[C@H]([C@H](OC(=O)c3ccccc3)[C@]3(O)C[C@H](OC(=O)[C@H](O)[C@@H](NC(=O)c4ccccc4)c4ccccc4)C(C)=C1C3(C)C)[C@]1(OC(C)=O)CO[C@@H]1C[C@@H]2O [Paclitaxel] (first compound max 1 µM, 7x7, partner max 3 µM) | 0.77 | 0.283 | 0.958 | 0.969 | 0.776 | 1 | 0.496 | -0.0216 | -0.0177 | -0.0298 | -0.0046 | -0.0432 | -0.0453 | 0.0016 | -0.0242 | -0.0187 | 0.0104 | 0.078 | -0.0231 | -0.0074 |
